Results on 12 compounds are retold here after patent publication US9334268B2, “4-amino-imidazoquinoline compounds” (Hoffmann-La Roche Inc., priority 2014, dated 2016).

One test addresses human TLR8 (Homo sapiens (Human), UniProt Q9NR97). Nature of the test: HEK-Blue human TLR8 SEAP reporter assay. The note with it: HEK-Blue human TLR8 cells, NF-κB-regulated SEAP reporter, stimulation for 24 hr. Format: cell-based. Here is the method:
(§1) For TLR8 and TLR7 activity testing, HEK-Blue human TLR8 or TLR7 cells, respectively, (Invivogen, San Diego, Calif., USA) transfected with a SEAP reporter (secreted embryonic alkaline phosphatase) construct were used, in which the reporter expression is regulated by the NF-κB promoter upon stimulation for 24 hr. The reporter activity was determined using Quanti Blue kit (Invivogen, San Diego, Calif., USA) at a wavelength of 640 nm.
(§2) EC50 values were determined using Activity Base analysis (ID Business Solution, Limited).
Background: A reporter such as luciferase makes a cellular process visible.

The target of a further test is human TLR7 (Homo sapiens (Human), UniProt Q9NYK1). In words: HEK-Blue human TLR7 SEAP reporter assay. Format: cell-based. The note with it: for EC50: HEK-Blue human TLR7 cells, NF-κB-regulated SEAP reporter, stimulation for 24 hr. As to the method: as §1, §2

Counter-ions that a name gives are not always drawn.

Sequence of human TLR8 (Q9NR97 27-1041): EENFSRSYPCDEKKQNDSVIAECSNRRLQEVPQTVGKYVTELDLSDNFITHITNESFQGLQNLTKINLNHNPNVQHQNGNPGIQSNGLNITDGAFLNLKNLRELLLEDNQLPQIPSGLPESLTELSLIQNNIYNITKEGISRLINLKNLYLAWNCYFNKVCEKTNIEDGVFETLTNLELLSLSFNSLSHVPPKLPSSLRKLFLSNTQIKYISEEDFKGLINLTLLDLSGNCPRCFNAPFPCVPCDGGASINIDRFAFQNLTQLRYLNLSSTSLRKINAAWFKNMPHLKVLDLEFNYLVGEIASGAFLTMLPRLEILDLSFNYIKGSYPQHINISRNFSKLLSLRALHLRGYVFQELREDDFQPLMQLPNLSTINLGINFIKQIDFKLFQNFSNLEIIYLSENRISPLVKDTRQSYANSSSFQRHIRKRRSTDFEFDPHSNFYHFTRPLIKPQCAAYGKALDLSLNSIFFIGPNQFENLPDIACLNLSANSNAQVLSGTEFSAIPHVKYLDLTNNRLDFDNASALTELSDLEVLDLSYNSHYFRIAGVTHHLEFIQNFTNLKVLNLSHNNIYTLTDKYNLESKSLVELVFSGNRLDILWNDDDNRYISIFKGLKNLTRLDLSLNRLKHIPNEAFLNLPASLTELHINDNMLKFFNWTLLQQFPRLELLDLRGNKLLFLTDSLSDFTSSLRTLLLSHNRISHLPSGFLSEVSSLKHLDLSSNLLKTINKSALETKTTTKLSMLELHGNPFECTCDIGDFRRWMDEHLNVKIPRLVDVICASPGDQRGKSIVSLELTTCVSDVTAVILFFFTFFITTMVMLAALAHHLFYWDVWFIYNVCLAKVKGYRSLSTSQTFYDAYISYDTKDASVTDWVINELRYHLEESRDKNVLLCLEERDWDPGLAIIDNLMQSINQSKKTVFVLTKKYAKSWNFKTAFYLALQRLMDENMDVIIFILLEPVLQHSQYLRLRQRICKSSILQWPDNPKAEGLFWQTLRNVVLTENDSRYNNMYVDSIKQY
Sequence of human TLR7 (Q9NYK1 27-1049): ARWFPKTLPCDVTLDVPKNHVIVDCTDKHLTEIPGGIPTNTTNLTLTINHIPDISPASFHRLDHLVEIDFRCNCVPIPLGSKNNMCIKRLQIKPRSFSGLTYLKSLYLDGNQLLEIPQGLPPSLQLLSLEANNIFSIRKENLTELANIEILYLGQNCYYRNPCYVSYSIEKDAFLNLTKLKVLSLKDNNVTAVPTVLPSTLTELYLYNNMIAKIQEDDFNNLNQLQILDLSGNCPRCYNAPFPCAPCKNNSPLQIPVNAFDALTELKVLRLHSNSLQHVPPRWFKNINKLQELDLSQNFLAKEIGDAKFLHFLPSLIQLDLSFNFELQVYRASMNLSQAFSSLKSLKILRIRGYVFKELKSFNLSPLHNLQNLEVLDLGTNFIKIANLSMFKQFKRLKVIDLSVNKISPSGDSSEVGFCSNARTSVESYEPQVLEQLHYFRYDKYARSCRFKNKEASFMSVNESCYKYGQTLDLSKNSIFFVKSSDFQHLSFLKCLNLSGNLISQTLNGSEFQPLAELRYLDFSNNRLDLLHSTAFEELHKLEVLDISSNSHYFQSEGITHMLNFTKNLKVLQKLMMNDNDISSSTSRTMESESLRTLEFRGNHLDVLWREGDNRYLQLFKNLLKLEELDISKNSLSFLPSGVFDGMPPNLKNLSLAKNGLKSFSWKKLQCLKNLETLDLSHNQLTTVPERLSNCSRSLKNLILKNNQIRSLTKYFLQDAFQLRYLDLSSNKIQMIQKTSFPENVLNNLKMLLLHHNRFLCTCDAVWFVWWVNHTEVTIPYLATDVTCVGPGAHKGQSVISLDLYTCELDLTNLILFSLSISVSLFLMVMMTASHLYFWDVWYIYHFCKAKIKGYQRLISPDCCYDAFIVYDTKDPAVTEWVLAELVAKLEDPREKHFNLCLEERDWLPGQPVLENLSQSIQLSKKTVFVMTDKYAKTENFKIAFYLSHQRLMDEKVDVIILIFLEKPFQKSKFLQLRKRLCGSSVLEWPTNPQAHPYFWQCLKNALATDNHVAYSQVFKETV

As a reminder, the EC50 is the concentration that produces a half-maximal response. A low value points to higher potency in that assay. On to `CCOCc1nc2c(N)nc3ccccc3c2n1CCOCCN` [1-(2-(2-Aminoethoxy)ethyl)-2-(ethoxymethyl)-1H-imidazo[4,5-c]quinolin-4-amine, reference compound], for which the concentration giving a half-maximal response (EC50) was 49000 nM on human TLR8 and above 100000 nM on human TLR7. In addition, the “cellular potency at TLR7” value at human TLR7 (statement in words, compared with resiquimod) is “do not show the required activity”.

In the case of `CCOCc1nc2c(N)nc3ccccc3c2n1CC(C)(C)OCCN` [Example 1, 1-(2-(2-Aminoethoxy)-2-methylpropyl)-2-(ethoxymethyl)-1H-imidazo[4,5-c]quinolin-4-amine], the 50% effective concentration (EC50) at human TLR8 was 580 nM; at human TLR7 it was 60 nM.

As to `CCOCc1nc2c(N)nc3ccccc3c2n1CC(C)(C)OC(=O)CN` [Example 2, 1-(4-Amino-2-(ethoxymethyl)-1H-imidazo[4,5-c]quinolin-1-yl)-2-methylpropan-2-yl 2-aminoacetate], the figures for the EC50 on human TLR8 and at human TLR7 were 80 nM and 50 nM, respectively.

Turning to `CCOCc1nc2c(N)nc3ccccc3c2n1CC(C)(C)OCCNC(=O)c1cccnc1` [Example 3, N-(2-(1-(4-Amino-2-(ethoxymethyl)-1H-imidazo[4,5-c]quinolin-1-yl)-2-methylpropan-2-yloxy)ethyl)nicotinamide], the values for the EC50 on human TLR8 and on human TLR7 were 35000 nM and 223 nM, respectively.

In turn, `CCOCc1nc2c(N)nc3ccccc3c2n1CC(C)(C)OCCNC(C)=O` [Example 4, N-(2-(1-(4-Amino-2-(ethoxymethyl)-1H-imidazo[4,5-c]quinolin-1-yl)-2-methylpropan-2-yloxy)ethyl)acetamide] had a concentration giving a half-maximal response (EC50) at human TLR7 of 27 nM.

Consider `CCOCc1nc2c(N)nc3ccccc3c2n1CC(C)(C)OCCNCCCO` [Example 5, 3-(2-(1-(4-Amino-2-(ethoxymethyl)-1H-imidazo[4,5-c]quinolin-1-yl)-2-methylpropan-2-yloxy)ethylamino)propan-1-ol], for which the concentration giving a half-maximal response (EC50) amounted to 10500 nM on human TLR8 and 900 nM at human TLR7.

As to `CCOCc1nc2c(N)nc3ccccc3c2n1CC(C)(C)OCCNC(=O)CCCCCNC(=O)OC(C)(C)C` [Example 6, tert-Butyl 6-(2-(1-(4-amino-2-(ethoxymethyl)-1H-imidazo[4,5-c]quinolin-1-yl)-2-methylpropan-2-yloxy)ethylamino)-6-oxohexylcarbamate], the EC50 on human TLR8 is 2900 nM; at human TLR7, 195 nM.

Regarding `CCOCc1nc2c(N)nc3cc(/C=C/C(=O)OCC)ccc3c2n1CC(C)(C)OCCN` [Example 7, (E)-Ethyl 3-(4-amino-1-(2-(2-aminoethoxy)-2-methylpropyl)-2-(ethoxymethyl)-1H-imidazo[4,5-c]quinolin-7-yl)acrylate], the EC50 at human TLR8 came to 1080 nM; on human TLR7, 139 nM.

For the compound `CCOCc1nc2c(N)nc3cc(CCC(=O)OCC)ccc3c2n1CC(C)(C)OCCN` [Example 8, Ethyl 3-(4-amino-1-(2-(2-aminoethoxy)-2-methylpropyl)-2-(ethoxymethyl)-1H-imidazo[4,5-c]quinolin-7-yl)propanoate hydrochloride], the values for the EC50 at human TLR8 and on human TLR7 were 256 nM and 134 nM, respectively.

`CCOCc1nc2c(N)nc3cc(CCC(=O)OCC)ccc3c2n1CC(C)(C)OC(=O)CN` [Example 9, Ethyl 3-(4-amino-1-(2-(2-aminoacetoxy)-2-methylpropyl)-2-(ethoxymethyl)-1H-imidazo[4,5-c]quinolin-7-yl)propanoate]: the EC50 on human TLR8 came out at 54 nM; at human TLR7, 55 nM.

Regarding `CCCCCc1nc2c(N)nc3ccccc3c2n1CC(C)(C)OCCN` [Example 10, 1-(2-(2-Aminoethoxy)-2-methylpropyl)-2-pentyl-1H-imidazo[4,5-c]quinolin-4-amine], the values for the EC50 at human TLR8 and at human TLR7 were 2700 nM and 152 nM, respectively.

In the case of `CCOCc1nc2c(N)nc3cc(Br)ccc3c2n1CC(C)(C)OCCN` [Example 11, 1-(2-(2-Aminoethoxy)-2-methylpropyl)-7-bromo-2-(ethoxymethyl)-1H-imidazo[4,5-c]quinolin-4-amine hydrochloride], the concentration giving a half-maximal response (EC50) on human TLR8 was determined as 2900 nM; on human TLR7 it was 130 nM.
